Measured values reported in patent US10550143B2, “C,O-spiro aryl glycoside compounds, preparation therefor and use thereof” (SHANGHAI INSTITUTE OF MATERIA MEDICA, CHINESE ACADEMY OF …, priority 2015, dated 2020).

Experiments:
[1] = system: SD rats; experiment: Acute single administration, urinary glucose changes in SD rats; type: in vivo, rat; parameters: Urine glucose concentration / The total amount of glucose excreted: unit not given here; conditions: 1 mg/kg oral, after 24 h
Experimental: (1) Acutely Administering Compound to Observed the Urinary Glucose Changes in SD Rats
Thirty-eight male normal SD rats were selected and randomly divided into 5 groups according to body weight and blood glucose, 6-8 in each group. […] After oral gavage, the rats were placed in rats metabolic cages, and urine was collected after 24 h, and the urine volume was recorded, the urine sugar concentration was determined, and urinary sugar content was calculated according to the following formula. Urine content=urinary sugar concentration×urine volume
Glucose levels in urine are measured by the glucose assay kit.
Data were expressed as mean±standard deviation (x±s), and Student's t test was used for statistical analysis of the data, p<0.05 was considered statistically significant.

[2] = molecular target: T1, hSGLT1 (Homo sapiens, UniProt P13866); experiment: In vitro SGLT1 inhibition (hSGLT1 IC50 test); type: cell-based; conditions: read-out: IC50 ± SD SGLT1
T1 sequence (P13866 1-664): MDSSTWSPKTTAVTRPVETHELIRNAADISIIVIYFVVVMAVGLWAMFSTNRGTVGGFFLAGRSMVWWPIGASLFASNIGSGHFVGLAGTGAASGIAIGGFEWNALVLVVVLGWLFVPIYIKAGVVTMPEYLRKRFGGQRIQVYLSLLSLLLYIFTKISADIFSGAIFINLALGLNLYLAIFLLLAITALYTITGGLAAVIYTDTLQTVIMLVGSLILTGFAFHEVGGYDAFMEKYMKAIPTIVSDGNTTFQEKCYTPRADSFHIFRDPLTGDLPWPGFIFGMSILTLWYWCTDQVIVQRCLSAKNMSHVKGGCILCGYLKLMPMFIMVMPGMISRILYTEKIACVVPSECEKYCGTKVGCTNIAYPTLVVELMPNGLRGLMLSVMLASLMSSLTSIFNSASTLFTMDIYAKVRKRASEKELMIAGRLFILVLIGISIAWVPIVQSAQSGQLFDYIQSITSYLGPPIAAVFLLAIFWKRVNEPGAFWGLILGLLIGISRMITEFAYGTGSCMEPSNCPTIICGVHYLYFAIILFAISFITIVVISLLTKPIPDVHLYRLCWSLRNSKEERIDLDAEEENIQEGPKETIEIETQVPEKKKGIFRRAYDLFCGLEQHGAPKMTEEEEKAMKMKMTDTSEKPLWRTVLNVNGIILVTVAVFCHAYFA

For `CCc1ccc(Cc2cc3c(cc2Cl)CO[C@]32O[C@H](C)[C@@H](O)[C@H](O)[C@H]2O)s1` [Example A28, (1S,3′R,4′S,5′S,6′R)-6′-methyl-6-((5-ethylthienyl)-2-methyl)-5-chloro-3′,4′,5′,6′-tetrahydro-3H-spiro[isobenzofuran-1,2′-pyran]-3′,4′,5′-triol], the “The total amount of glucose excreted” value ([1]; Table 3) was 337.10 ± 313.7, the Urine glucose concentration ([1]; Table 3) was 76.29 ± 71.20 and the Urine volume ([1]; Table 3, in mL) was 24 ± 6.63. It also gave an IC50 [2] of 2060 ± 210 nM.
